Data as given in patent publication US20070208166A1, “Tao Kinase Modulators And Method Of Use” (Exelixis, Inc., priority 2003, published 2007).

Experiments:
Type in all cases: biochemical
JIK = target: T1, JIK (Homo sapiens, UniProt Q9H2K8); test: JIK Luciferase-Coupled Chemiluminescent Kinase assay (LCCA); conditions: 2 μM ATP, 10 μM MBP, 6 nM JIK, 2 hours; read-out: JIK inhibition IC50
T1 construct: 6 nM JIK (baculovirus expressed human KIAA 1361 kinase domain2-318); made in house
T1 sequence (Q9H2K8 2-318): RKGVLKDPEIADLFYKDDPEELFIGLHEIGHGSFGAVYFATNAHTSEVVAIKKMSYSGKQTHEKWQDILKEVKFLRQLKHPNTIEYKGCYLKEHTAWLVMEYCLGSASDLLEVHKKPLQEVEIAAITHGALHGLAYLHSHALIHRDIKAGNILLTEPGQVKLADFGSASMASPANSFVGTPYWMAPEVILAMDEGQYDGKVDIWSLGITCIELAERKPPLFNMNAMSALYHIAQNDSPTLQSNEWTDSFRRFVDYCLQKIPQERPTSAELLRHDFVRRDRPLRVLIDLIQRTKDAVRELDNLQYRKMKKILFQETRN
Protocol: (§1) Kinase activity and compound inhibition are investigated using one or more of the three assay formats described below. The ATP concentrations for each assay are selected to be close to the Michaelis-Menten constant (KM) for each individual kinase. Dose-response experiments are performed at 10 different inhibitor concentrations in a 384-well plate format. The data are fitted to four-parameter equation (2) below; where Y is the observed signal, X is the inhibitor concentration, Min is the background signal in the absence of enzyme (0% enzyme activity), Max is the signal in the absence of inhibitor (100% enzyme activity), IC50 is the inhibitor concentration at 50% enzyme inhibition and H represents the empirical Hill's slope to measure the cooperativity. Typically H is close to unity. Y=Min+(Max−Min)/(1+(X/IC50)ˆH) Equation (2) KIAA 1361 Assay: […]
(§2) JIK biochemical activity was assessed using a Luciferase-Coupled Chemiluminescent Kinase assay (LCCA) format. Kinase activity was measured as the percent ATP remaining following the kinase reaction. Remaining ATP was detected by luciferase-luciferin-coupled chemiluminescence. Specifically, the reaction was initiated by mixing test compounds, 2 μM ATP, 10 μM MBP and 6 nM JIK (baculovirus expressed human KIAA 1361 kinase domain2-318) in a 20 uL assay buffer (20 mM Tris-HCL pH7.5, 10 mM MgCl2, 0.02% Triton X-100, 100 mM DTT, 2 mM MnCl2). The mixture is incubated at ambient temperature for 2 hours after which 20 uL luciferase-luciferin mix is added and the chemiluminescent signal read using a Wallac Victor^2 reader. The luciferase-luciferin mix consists of 50 mM HEPES, pH 7.8, 8.5 ug/mL oxalic acid (pH 7.8), 5 (or 50) mM DTT, 0.4% Triton X-100, 0.25 mg/mL coenzyme A, 63 uM AMP, 28 ug/mL luciferin and 40,000 units of light/mL luciferase.

[1] = target: T2, KIAA 1361 (baculovirus expressed human KIAA 1361 kinase domain 2-322) (Homo sapiens, UniProt Q7L7X3); test: KIAA 1361 Luciferase-Coupled Chemiluminescent Kinase assay (LCCA); conditions: 2 μM ATP, 10 μM MBP, 12 nM KIAA 1361, 2 hours; read-out: KIAA1361 inhibition IC50
T2 construct: human KIAA 1361 kinase domain 2-322; made in house
T2 sequence (Q7L7X3 2-322): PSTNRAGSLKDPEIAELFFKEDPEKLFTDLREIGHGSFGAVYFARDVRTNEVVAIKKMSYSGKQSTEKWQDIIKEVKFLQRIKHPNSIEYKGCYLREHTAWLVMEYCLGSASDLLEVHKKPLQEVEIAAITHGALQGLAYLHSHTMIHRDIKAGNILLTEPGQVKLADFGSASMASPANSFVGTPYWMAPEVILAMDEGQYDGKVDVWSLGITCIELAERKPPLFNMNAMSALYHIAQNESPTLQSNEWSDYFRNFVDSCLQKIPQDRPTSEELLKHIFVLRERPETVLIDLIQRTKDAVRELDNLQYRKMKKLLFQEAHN
Protocol: as §1
as §2, with “KIAA 1361 biochemical” for “JIK biochemical”, “and 12” for “and 6”, “nM KIAA 1361” for “nM JIK”, “kinase domain 2-322)” for “kinase domain2-318)”

TAO = target: T3, TAO (Homo sapiens, UniProt Q9UL54); test: TAO Luciferase-Coupled Chemiluminescent Kinase assay (LCCA); conditions: 2 μM ATP, 10 μM MBP, 12 nM TAO, 2 hours; read-out: TAO inhibition IC50
T3 sequence (Q9UL54 1-1235): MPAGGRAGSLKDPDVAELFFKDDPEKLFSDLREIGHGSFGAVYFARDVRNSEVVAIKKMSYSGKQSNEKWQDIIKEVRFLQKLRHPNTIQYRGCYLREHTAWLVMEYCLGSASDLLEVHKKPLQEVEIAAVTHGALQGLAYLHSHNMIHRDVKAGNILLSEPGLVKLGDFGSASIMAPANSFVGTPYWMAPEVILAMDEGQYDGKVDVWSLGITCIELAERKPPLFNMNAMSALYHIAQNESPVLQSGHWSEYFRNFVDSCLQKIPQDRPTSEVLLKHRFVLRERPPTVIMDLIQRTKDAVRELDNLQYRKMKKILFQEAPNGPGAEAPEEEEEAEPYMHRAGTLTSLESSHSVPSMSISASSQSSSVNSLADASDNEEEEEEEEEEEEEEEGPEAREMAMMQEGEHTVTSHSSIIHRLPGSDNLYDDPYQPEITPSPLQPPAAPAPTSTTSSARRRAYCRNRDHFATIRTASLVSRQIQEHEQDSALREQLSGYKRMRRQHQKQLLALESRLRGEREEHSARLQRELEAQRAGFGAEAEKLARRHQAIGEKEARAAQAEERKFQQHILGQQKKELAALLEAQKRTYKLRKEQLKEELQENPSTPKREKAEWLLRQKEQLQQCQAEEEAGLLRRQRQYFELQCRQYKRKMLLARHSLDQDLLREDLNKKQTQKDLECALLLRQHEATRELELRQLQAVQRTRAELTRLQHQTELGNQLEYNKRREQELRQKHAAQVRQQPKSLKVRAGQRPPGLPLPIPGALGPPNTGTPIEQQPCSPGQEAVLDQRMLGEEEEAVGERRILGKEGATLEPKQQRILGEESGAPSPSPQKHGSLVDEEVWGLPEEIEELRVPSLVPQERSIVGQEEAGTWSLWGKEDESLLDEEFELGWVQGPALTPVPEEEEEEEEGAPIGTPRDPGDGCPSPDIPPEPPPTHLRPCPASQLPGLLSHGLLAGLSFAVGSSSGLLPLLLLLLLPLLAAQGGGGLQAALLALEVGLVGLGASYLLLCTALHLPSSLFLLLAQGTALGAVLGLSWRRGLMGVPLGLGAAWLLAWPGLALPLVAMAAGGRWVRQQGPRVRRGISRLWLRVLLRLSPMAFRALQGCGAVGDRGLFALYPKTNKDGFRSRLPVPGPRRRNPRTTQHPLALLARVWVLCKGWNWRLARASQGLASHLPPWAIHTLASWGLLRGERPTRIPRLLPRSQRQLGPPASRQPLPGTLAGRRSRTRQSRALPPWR
Protocol: as §1
as §2, with “TAO biochemical” for “JIK biochemical”, “and 12” for “and 6”, “nM TAO” for “nM JIK”, “kinase domain 2-322)” for “kinase domain2-318)”, “mM […],” for “mM HEPES,”, “[…]” for “0.25 mg/mL”

Structure (SMILES): CCc1ccc(-c2ccc(C(=O)NCC(=O)NCc3ccc(Cl)c(Cl)c3)cc2)cc1 [Entry 54, N-(2-{[(3,4-dichlorophenyl)methyl]amino}-2-oxoethyl)-4′-ethylbiphenyl-4-carboxamide]
- IC50 (JIK): > 5 µM
- IC50 [1]: > 5 µM
- IC50 (TAO): > 5 µM

Structure (SMILES): CCc1ccc(-c2ccc(C(=O)N(C)CC(=O)NC3CCCc4ccccc43)cc2)cc1 (stereo not drawn) [Entry 66, 4′-ethyl-N-methyl-N-[2-oxo-2-(1,2,3,4-tetrahydronaphthalen-1-ylamino)ethyl]biphenyl-4-carboxamide]
- IC50 (JIK): > 5 µM
- IC50 [1]: > 5 µM
- IC50 (TAO): > 5 µM

Structure (SMILES): CCc1ccc(-c2ccc(C(=O)NCC(=O)NC(C)c3ccccc3)cc2)cc1 (stereo not drawn) [Entry 78, 4′-ethyl-N-{2-oxo-2-[(1-phenylethyl)amino]ethyl}biphenyl-4-carboxamide]
- IC50 (JIK): 0.05 to 0.5 µM
- IC50 [1]: 0.5 to 5 µM
- IC50 (TAO): > 5 µM

Structure (SMILES): O=C(CNC(=O)c1ccc(OCc2ccccc2)cc1)NC1CCCc2ccccc21 (stereo not drawn) [Entry 51, N-[2-oxo-2-(1,2,3,4-tetrahydronaphthalen-1-ylamino)ethyl]-4-[(phenylmethyl)oxy]benzamide]
- IC50 (JIK): < 0.05 µM
- IC50 [1]: < 0.05 µM
- IC50 (TAO): 0.05 to 0.5 µM

Structure (SMILES): CCc1ccc(-c2ccc(C(=O)NCC(=O)NCc3ccccc3C(F)(F)F)cc2)cc1 [Entry 79, 4′-ethyl-N-[2-oxo-2-({[2-(trifluoromethyl)phenyl]methyl}amino)ethyl]biphenyl-4-carboxamide]
- IC50 (JIK): 0.05 to 0.5 µM
- IC50 [1]: 0.05 to 0.5 µM
- IC50 (TAO): > 5 µM

Structure (SMILES): CCc1ccc(-c2ccc(C(=O)NC(C)C(=O)NC3CCc4ccccc4C3)cc2)cc1 (stereo not drawn) [Entry 5, 4′-ethyl-N-[1-methyl-2-oxo-2-(1,2,3,4-tetrahydronaphthalen-2-ylamino)ethyl]biphenyl-4-carboxamide]
- IC50 (JIK): < 0.05 µM
- IC50 [1]: < 0.05 µM
- IC50 (TAO): 0.05 to 0.5 µM

Structure (SMILES): CCc1cccc(NC(=O)NCC(=O)NC2CCCc3ccccc32)c1 (stereo not drawn) [Entry 48, N˜2˜-{[(3-ethylphenyl)amino]carbonyl}-N-(1,2,3,4-tetrahydronaphthalen-1-yl)glycinamide]
- IC50 (JIK): > 5 µM
- IC50 [1]: > 5 µM
- IC50 (TAO): > 5 µM

Structure (SMILES): O=C(CNC(=O)c1ccc(OC(F)(F)F)cc1)NC1CCCc2ccccc21 (stereo not drawn) [Entry 45, N-[2-oxo-2-(1,2,3,4-tetrahydronaphthalen-1-ylamino)ethyl]-4-[(trifluoromethyl)oxy]benzamide]
- IC50 (JIK): 0.05 to 0.5 µM
- IC50 [1]: 0.5 to 5 µM
- IC50 (TAO): 0.5 to 5 µM

Structure (SMILES): CCc1ccc(-c2ccc(C(=O)NCC(=O)N3CCc4ccccc4C3)cc2)cc1 [Entry 60, N-[2-(3,4-dihydroisoquinolin-2(1H)-yl)-2-oxoethyl]-4′-ethylbiphenyl-4-carboxamide]
- IC50 (JIK): > 5 µM
- IC50 [1]: > 5 µM
- IC50 (TAO): > 5 µM

Structure (SMILES): CCCCCCOc1ccc(C(=O)NCC(=O)NC2CCCc3ccccc32)cc1 (stereo not drawn) [Entry 6, 4-(hexyloxy)-N-[2-oxo-2-(1,2,3,4-tetrahydronaphthalen-1-ylamino)ethyl]benzamide]
- IC50 (JIK): < 0.05 µM
- IC50 [1]: < 0.05 µM
- IC50 (TAO): 0.05 to 0.5 µM

Structure (SMILES): CCc1ccc(-c2ccc(C(=O)NCC(=O)N3Cc4ccccc4C3)cc2)cc1 [Entry 57, N-[2-(1,3-dihydro-2H-isoindol-2-yl)-2-oxoethyl]-4′-ethylbiphenyl-4-carboxamide]
- IC50 (JIK): > 5 µM
- IC50 [1]: > 5 µM
- IC50 (TAO): > 5 µM

Structure (SMILES): CCCCOc1ccc(C(=O)N[C@@H](Cc2c[nH]c3ccccc23)C(=O)NC2CCCc3ccccc32)cc1 (stereo partly drawn) [Entry 14, Nalpha-{[4-(butyloxy)phenyl]carbonyl}-N-(1,2,3,4-tetrahydronaphthalen-1-yl)tryptophanamide]
- IC50 (JIK): 0.05 to 0.5 µM
- IC50 [1]: 0.05 to 0.5 µM
- IC50 (TAO): 0.5 to 5 µM

Structure (SMILES): CCCCCOc1ccc(C(=O)NCC(=O)NC2CCCc3ccccc32)cc1 (stereo not drawn) [Entry 1, N-[2-oxo-2-(1,2,3,4-tetrahydronaphthalen-1-ylamino)ethyl]-4-(pentyloxy)benzamide]
- IC50 (JIK): < 0.05 µM
- IC50 [1]: < 0.05 µM
- IC50 (TAO): 0.05 to 0.5 µM

Structure (SMILES): O=C(CNC(=O)c1ccc(-n2ccnc2)cc1)NC1CCCc2ccccc21 (stereo not drawn) [Entry 70, 4-(1H-imidazol-1-yl)-N-[2-oxo-2-(1,2,3,4-tetrahydronaphthalen-1-ylamino)ethyl]benzamide]
- IC50 (JIK): 0.05 to 0.5 µM
- IC50 [1]: 0.5 to 5 µM
- IC50 (TAO): 0.5 to 5 µM
